Assay results: US10195179B2, “Spiro-lactam NMDA receptor modulators and uses thereof” (Aptinyx Inc., priority 2016, dated 2019)
Read-outs that look alike come from different tables or passages of the source.

Assays:
[1] = target: NR2B (Homo sapiens, UniProt Q13224); experiment: Potentiation of [3H]MK-801 binding, wild-type NMDAR2B; design: species or system rat
Description: (§1) Assays were conducted as described by Moskal et al., “GLYX-13: a monoclonal antibody-derived peptide that acts as an N-methyl-D-aspartate receptor modulator,” Neuropharmacology, 49, 1077-87, 2005. The potentiation of [^3H]MK-801 binding (5 nM; 22.5 Ci/mmol) to well washed rat cortical membranes (200 μg) was measured under non-equilibrium conditions (15 min @ 25° C.) in the presence of increasing concentrations of Compound AA or Compound BB.
(§2) FIG. 2A depicts the potentiation of [^3H]MK-801 binding for wild-type NMDAR2 subtypes in the presence of Compound AA. FIG. 2B depicts the potentiation of [^3H]MK-801 binding for wild-type NMDAR2 subtypes in the presence of Compound BB. The following table depicts the results (P means potency and A means activity): […]

[2] = system: Sprague Dawley rats; experiment: Bennett model of mechanical analgesia (paw withdrawal threshold); format: in vivo, rat; details: 0.1-10 mg/kg PO; tested 1 h, 24 hrs and 1 week post-dosing
Description: Bennett G J, Xie Y K, “A peripheral mononeuropathy in rat that produces disorders of pain sensation like those seen in man,” Pain 33:87-107, 1988. […] Vehicle animals receive the surgery and then receive vehicle rather than test compound. Animals were tested 1 hr, 24 h and 1 wk post-test compound or vehicle administration.
Male 2-3 month old Sprague Dawley rats were used. Harlan was the supplier for all studies. Rats were housed in Lucite cages with aspen wood chip bedding, maintained on a 12:12 light:dark cycle (lights on at 5 AM), and given ad libitum access to Purina lab chow (USA) and tap water throughout the study.
Rats were anesthetized using inhaled isoflurane (2.5%). Spared nerve injury surgery was performed as previously described (Bennett and Xie, 1988). An incision (˜1.5 cm in length) was made with a scalpel blade dorsally through skin on the right hindlimb, parallel and posterior to femur. Using a small pointed hemostat, the biceps femoris and gluteus superficialis muscles were separated. Using curved blunt forceps, the common sciatic nerve was isolated and exposed. For the mechanical analgesia studies, the whole sciatic nerve was ligated. Using hemostats/forceps and chromic gut (5-0), the nerve was loosely ligated with a square knot; 3 ligatures, 1 mm apart were placed on the nerve. […]

[3] = Microsomal stability, human; format: in vitro ADME; details: human microsomes
Description: Microsomal stability for Compound AA and Compound BB was investigated. The following table indicates the percent of Compound AA and Compound BB remaining after 60 minutes.

[4] = system: Sprague Dawley rats; experiment: Blast-induced traumatic brain injury/cognitive deficits measured by PEL; format: in vivo, rat; details: 10 mg/kg PO 1 h post-blast, PEL 48 hours post-blast
Text: Single blast-induced traumatic brain injury/cognitive deficits were induced, modified for use in rats according to the protocol of Goldstein et al., “Chronic traumatic encephalopathy in blast-exposed military veterans and a blast neurotrauma mouse model,” Science Translational Medicine, Vol. 4, Issue 134, pp. 134ra60, 2012. Male 2-3 month old Sprague Dawley rats were used. Rats were housed in Lucite cages with aspen wood chip bedding, maintained on a 12:12 light:dark cycle (lights on at 5 AM), and given ad libitum access to Purina lab chow (USA) and tap water throughout the study. Rats were first anesthetized using 3.5-4% isoflurane, then the ears were protected with 1.5×1.5 mm foam plugs (Pura-Fit®, Moldex-Metric Inc., Culver City, Calif.), and the rat was placed into a head access rodent thoracic restrainer (Stoelting, USA) to protect the body while allowing the head to move freely. […]
PEL (Positive emotional learning) was conducted 48 hours post-blast. […] High frequency ultrasonic vocalizations (USVs) were recorded and analyzed by sonogram with Avasoft SASlab Pro (Germany) as previously described by Burgdorf et al., “Positive emotional learning is regulated in the medial prefrontal cortex by GluN2B-containing NMDA receptors,” Neuroscience, 192:515-523, 2011. Frequency modulated 50-kHz USVs that occurred during each the no-stimulation periods were quantified to measure PEL. […]

[5] = target: NR2D (Homo sapiens, UniProt O15399); experiment: Potentiation of [3H]MK-801 binding, wild-type NMDAR2D; design: species or system rat
Chain of NR2D (O15399 28-1336, species assumed, other chains not shown): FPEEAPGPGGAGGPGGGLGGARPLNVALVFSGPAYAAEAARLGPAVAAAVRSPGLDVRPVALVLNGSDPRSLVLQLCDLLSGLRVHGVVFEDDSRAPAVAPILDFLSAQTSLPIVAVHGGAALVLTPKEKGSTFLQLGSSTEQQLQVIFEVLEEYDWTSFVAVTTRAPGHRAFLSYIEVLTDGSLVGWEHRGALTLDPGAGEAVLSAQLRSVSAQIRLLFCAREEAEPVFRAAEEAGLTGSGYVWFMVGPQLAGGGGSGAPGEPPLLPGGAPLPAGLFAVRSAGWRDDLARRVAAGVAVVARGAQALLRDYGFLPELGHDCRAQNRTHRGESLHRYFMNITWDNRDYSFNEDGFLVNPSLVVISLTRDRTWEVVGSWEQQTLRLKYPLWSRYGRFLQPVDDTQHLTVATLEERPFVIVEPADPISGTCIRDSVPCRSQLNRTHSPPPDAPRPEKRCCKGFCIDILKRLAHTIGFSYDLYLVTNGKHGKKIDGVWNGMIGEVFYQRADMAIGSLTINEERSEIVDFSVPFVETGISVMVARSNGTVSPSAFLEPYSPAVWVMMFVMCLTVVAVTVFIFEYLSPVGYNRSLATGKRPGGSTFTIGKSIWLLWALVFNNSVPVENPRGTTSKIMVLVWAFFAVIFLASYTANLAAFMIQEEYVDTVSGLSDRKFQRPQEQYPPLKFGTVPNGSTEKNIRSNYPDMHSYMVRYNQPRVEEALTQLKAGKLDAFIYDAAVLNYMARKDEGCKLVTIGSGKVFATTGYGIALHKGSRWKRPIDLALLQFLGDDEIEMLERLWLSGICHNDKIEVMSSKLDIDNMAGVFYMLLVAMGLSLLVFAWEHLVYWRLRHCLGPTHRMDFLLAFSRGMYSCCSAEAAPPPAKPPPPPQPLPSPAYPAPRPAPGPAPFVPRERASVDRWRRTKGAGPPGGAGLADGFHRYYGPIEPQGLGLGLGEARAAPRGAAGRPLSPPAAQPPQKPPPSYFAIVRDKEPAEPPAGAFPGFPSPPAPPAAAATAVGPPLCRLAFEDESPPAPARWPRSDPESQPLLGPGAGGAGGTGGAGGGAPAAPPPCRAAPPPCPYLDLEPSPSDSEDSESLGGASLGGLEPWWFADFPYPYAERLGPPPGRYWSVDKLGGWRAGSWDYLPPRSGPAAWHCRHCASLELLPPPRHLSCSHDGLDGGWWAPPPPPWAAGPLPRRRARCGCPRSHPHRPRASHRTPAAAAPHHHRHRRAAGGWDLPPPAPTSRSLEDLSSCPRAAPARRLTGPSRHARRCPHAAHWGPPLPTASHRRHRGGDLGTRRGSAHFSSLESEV
Description: as §1, §2

[6] = Plasma stability, rat; format: in vitro ADME
Description: Plasma stability for Compound AA and Compound BB was investigated. The following table indicates the percent of Compound AA and Compound BB remaining after 60 minutes.

[7] = potentiation of [3H]MK-801 binding

Chain of NR2B (Q13224 27-1484, species assumed, other chains not shown): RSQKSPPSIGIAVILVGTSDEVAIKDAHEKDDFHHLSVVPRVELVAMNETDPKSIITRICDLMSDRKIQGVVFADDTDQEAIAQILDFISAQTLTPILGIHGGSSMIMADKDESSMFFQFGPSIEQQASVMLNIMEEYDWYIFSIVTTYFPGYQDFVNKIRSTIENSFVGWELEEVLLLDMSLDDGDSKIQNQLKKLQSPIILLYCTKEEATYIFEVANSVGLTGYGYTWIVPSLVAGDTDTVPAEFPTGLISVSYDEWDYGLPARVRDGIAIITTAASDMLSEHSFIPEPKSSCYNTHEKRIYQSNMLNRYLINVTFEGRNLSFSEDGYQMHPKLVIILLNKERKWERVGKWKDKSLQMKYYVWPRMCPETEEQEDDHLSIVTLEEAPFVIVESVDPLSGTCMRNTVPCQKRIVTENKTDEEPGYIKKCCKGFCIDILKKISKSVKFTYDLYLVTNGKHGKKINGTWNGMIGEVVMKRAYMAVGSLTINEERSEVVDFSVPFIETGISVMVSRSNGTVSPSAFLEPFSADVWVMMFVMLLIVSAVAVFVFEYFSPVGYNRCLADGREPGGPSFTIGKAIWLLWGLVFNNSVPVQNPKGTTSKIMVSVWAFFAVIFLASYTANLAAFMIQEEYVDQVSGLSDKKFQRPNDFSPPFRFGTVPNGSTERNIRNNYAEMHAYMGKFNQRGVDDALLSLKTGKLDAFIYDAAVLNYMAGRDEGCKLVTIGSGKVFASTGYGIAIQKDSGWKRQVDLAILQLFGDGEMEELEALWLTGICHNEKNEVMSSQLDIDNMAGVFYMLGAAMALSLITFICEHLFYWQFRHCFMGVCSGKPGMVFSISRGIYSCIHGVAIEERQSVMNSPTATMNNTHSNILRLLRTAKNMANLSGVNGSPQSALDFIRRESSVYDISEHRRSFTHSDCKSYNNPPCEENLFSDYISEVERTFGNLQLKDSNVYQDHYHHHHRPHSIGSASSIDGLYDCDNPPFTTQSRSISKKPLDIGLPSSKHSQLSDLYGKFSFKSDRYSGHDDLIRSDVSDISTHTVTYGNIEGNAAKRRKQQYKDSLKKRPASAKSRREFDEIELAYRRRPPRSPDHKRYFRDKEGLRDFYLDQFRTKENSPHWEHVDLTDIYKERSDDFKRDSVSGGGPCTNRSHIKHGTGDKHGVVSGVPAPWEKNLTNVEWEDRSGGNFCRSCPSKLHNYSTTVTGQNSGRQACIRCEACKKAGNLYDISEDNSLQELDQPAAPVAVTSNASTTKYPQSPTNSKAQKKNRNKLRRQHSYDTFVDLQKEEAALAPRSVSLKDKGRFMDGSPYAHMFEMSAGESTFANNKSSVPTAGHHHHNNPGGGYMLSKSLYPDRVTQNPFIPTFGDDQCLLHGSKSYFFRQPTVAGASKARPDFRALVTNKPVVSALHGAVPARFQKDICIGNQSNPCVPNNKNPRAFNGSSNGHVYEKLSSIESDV

C[C@@H](O)[C@@H](C(N)=O)N1C[C@@]2(CCCN2S(C)(=O)=O)C1=O [Compound BB, (2S,3R)-3-hydroxy-2-((S)-5-(methylsulfonyl)-1-oxo-2,5-diazaspiro[3,4]octan-2-yl)butanamide]
NR2B A (%) (activity) [1, 7]: 76.3%
NMDAR2B BINDING PROFILE % 1 mM Glycine ([1]; relative to 1 mM glycine): 76.3%
binding to NR2B (in words) ([1]; statement in description): binds
NMDAR2B BINDING PROFILE Conclusion ([1]; wild-type NMDAR2B): WT2B agonist
analgesic effects (paw withdrawal threshold) [2]: analgesic effects
Microsomal Stability (% remaining at 60 min) Human [3]: 92%
blast-induced cognitive deficits as measured by PEL [4]: reversed blast-induced cognitive deficits
NR2D A (%) (activity) [5, 7]: 57.41%
EC50 ([5]; potentiation of [3H]MK-801 binding, 0 = no activity, read-out: NR2D P (M) (potency) (converted)): 5.62e-11 M
NMDAR2D BINDING PROFILE % 1 mM Glycine ([5]; relative to 1 mM glycine): 57.41%
binding to NR2D (in words) ([5]; statement in description): binds
NMDAR2D BINDING PROFILE Conclusion ([5]; wild-type NMDAR2D): WT2D agonist
EC50 ([5]; wild-type NMDAR2D, read-out: NMDAR2D BINDING PROFILE −logEC50 (converted)): 5.62e-11 M
Plasma Stability (% remaining at 60 min) Rat [6]: 86%
